Experimental data published in patent US20110318393A1, “Substituted Pyrazole Compounds” (MIIKANA THERAPEUTICS, INC., priority 2008, published 2011).

Key:
Format in all cases: biochemical
recombinant Aurora A = target: T1, recombinant Aurora A (Homo sapiens, UniProt O14965); test: Aurora A (Aurora 2) inhibition assay, Z'-Lyte kinase assay; details: ATP 10 μM, 1 h; less than or equal to 100 nM
T1 construct: purchased Upstate, Lake Placid, N.Y
T1 sequence (O14965 1-403): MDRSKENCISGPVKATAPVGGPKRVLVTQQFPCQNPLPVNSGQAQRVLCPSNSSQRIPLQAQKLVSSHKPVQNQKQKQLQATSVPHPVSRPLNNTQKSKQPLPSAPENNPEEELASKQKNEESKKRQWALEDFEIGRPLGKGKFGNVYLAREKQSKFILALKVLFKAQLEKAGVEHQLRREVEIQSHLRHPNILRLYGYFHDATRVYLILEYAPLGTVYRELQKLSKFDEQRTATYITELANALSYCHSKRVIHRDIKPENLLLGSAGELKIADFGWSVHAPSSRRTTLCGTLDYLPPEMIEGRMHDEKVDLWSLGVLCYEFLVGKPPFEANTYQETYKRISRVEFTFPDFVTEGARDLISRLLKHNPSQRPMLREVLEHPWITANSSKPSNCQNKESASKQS
Description: Compounds were tested for their potency against recombinant Aurora A (Upstate, Lake Placid, N.Y.) using the PanVera Z′-Lyte kinase assay kit-Ser/Thr 1 peptide (Invitrogen, Carlsbad, Calif.). Assays were carried out in kinase assay buffer (50 mM HEPES, pH 7.5, 10 mM MgCl2, 5 mM EGTA, 0.05% Brij-35, 2 mM DTT). Test compounds were initially dissolved in DMSO at 100× the highest tested concentration, then serially diluted to 4× test concentrations in kinase assay buffer. Next, Aurora A (final concentration 200-500 ng/mL), Z′-Lyte Ser/Thr 1 peptide (final concentration 2 μM) and ATP (final concentration 10 μM) were added according to the manufacturer's instructions. Assays were carried out in half-area 96-well white polystyrene assay plates (Corning, Corning, N.Y.) in a final volume of 20 μl. The reaction was allowed to proceed for 1 h at room temperature in the dark, at which point the development reagent and stop reagent were added according to the manufacturer's instructions. Coumarin (Ex. 400 nm, Em. 465 nm) and fluorescein (Ex. 400 nm, Em. 565 nm) fluorescence values were measured on a SpectraFluor Plus plate reader (Tecan, Durham, N.C.). The emission ratio (coumarin/fluorescein) was determined and used to calculate the percent phosphorylation for each well. Wells containing substrate but no kinase and wells containing a phosphopeptide control were used to set 0% and 100% phosphorylation values, respectively. Typically 20-40% of the substrate was phosphorylated in wells without inhibitor. Dose-response curves of relative Aurora A activity vs. inhibitor concentration were plotted with Grafit (Erithacus Software, Horley, Surrey, UK).

[1] = target: T2, N-terminal GST-tagged recombinant human Flt3, residues 564-end (Homo sapiens, UniProt P36888); test: Flt3 kinase inhibition assay (33P-ATP filter assay); details: 40 minutes, room temperature; less than or equal to 100 nM
T2 construct: recombinant human Flt3, residues 564-end; GST (N); purchased Upstate USA Inc, Charlottesville, Va
T2 sequence (P36888 564-993 limits assumed): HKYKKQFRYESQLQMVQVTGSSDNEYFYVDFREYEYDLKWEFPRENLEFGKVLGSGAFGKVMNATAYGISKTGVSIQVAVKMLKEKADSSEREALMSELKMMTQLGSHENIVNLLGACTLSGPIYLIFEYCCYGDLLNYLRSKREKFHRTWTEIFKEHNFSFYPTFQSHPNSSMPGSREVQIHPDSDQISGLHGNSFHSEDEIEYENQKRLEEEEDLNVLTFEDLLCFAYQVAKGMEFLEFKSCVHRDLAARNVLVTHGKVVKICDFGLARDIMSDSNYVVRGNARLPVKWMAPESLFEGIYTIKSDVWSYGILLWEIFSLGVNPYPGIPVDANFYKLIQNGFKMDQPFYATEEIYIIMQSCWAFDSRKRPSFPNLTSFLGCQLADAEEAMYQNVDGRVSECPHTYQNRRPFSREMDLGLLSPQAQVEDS
Description: (§1) Compounds were assayed for Flt3 kinase inhibitory activity using N-terminal GST-tagged recombinant human Flt3, residues 564-end (Upstate USA Inc, 706 Forest Street, Charlottesville, Va.). Serial dilutions of compound were assayed in a final reaction volume of 25 μL by incubating a solution of the above Flt3 kinase (5-10 mU), 8 mM MOPS (3-(N-morpholino)propanesulfonic acid) pH 7.0, 0.2 mM EDTA (ethylenediamine tetracetic acid), 50 μM amino acid sequence EAIYAAPFAKKK (Upstate USA Inc, 706 Forest Street, Charlottesville, Va.), and 10 mM magnesium acetate and [γ-^33P-ATP] (specific activity of about 500 cpm/pmol, concentration as required). The reaction was initiated by the addition of the magnesium acetate and [γ-^33P-ATP] mixture. After incubation for 40 minutes at room temperature, the reaction was stopped by the addition of 5 μL of a 3% phosphoric acid solution. A 10 μL aliquote of the reaction was then spotted onto a P30 filtermat (PerkinElmer, Wellesley, Mass.) and washed three times for five minutes in 75 mM phosphoric acid and once in methanol prior to drying and scintillation counting. Inhibition of Flt3 activity was determined by comparison to assays that contained no inhibitor.

[2] = target: T3, N-terminal His-tagged human Src (Homo sapiens, UniProt P12931); test: Src kinase inhibition assay (33P-ATP filter assay); details: 40 minutes, room temperature; less than or equal to 100 nM
T3 construct: His (N); purchased Upstate USA Inc, Charlottesville, Va
T3 sequence (P12931 whole entry): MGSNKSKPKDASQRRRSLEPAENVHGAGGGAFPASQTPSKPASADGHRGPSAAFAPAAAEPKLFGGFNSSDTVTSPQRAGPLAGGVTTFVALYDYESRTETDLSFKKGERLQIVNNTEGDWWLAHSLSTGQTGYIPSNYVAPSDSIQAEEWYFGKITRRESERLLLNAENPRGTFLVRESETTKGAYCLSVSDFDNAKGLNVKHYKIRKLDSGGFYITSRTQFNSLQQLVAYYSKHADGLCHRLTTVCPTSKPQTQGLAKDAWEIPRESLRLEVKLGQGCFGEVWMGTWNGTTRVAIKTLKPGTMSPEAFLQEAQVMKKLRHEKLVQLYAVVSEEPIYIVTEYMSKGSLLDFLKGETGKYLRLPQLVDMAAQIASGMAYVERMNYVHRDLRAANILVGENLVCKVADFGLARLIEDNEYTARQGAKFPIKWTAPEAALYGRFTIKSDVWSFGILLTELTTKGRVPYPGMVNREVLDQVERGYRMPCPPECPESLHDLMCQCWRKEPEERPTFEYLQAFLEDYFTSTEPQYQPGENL
Description: Compounds were assayed for Src kinase inhibitory activity using N-terminal His-tagged human Src (Upstate USA Inc, 706 Forest Street, Charlottesville, Va.). Serial dilutions of compound were assayed in a final reaction volume of 25 μL by incubating a solution of the above Src kinase (5-10 mU), 8 mM MOPS (3-(N-morpholino)propanesulfonic acid) pH 7.0, 0.2 mM EDTA (ethylenediamine tetracetic acid), 250 μM amino acid sequence KVEKIGEGTYGVVYK (Upstate USA Inc, 706 Forest Street, Charlottesville, Va.), and 10 mM magnesium acetate and [γ-^33P-ATP] (specific activity of about 500 cpm/pmol, concentration as required). The reaction was initiated by the addition of the magnesium acetate and [γ-^33P-ATP] mixture. After incubation for 40 minutes at room temperature, the reaction was stopped by the addition of 5 μL of a 3% phosphoric acid solution. A 10 μL aliquote of the reaction was then spotted onto a P30 filtermat (PerkinElmer, Wellesley, Mass.) and washed three times for five minutes in 75 mM phosphoric acid and once in methanol prior to drying and scintillation counting. Inhibition of Src activity was determined by comparison to assays that contained no inhibitor.

[3] = target: T4, N-terminal His6-tagged recombinant human KDR, residues 790-end (Homo sapiens, UniProt P35968); test: KDR kinase inhibition assay (33P-ATP filter assay); details: 40 minutes, room temperature; less than or equal to 100 nM
T4 construct: recombinant human KDR, residues 790-end; His6 (N); purchased Upstate USA Inc, Charlottesville, Va
T4 sequence (P35968 790-1356 limits assumed): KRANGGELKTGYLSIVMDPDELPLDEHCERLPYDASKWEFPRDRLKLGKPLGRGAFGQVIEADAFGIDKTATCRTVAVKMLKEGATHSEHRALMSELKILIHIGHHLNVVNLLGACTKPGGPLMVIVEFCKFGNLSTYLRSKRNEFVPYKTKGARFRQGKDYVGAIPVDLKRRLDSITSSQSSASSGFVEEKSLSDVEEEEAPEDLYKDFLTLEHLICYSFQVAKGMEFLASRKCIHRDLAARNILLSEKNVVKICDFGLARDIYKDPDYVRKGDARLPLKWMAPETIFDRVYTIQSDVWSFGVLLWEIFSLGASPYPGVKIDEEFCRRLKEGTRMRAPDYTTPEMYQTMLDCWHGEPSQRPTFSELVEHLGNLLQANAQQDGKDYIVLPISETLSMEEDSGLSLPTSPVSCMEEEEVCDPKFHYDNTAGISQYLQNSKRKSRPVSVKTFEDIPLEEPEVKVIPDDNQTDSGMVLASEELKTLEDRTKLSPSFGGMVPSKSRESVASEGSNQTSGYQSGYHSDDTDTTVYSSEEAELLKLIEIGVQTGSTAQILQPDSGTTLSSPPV
Description: as §1, with “KDR” for “Flt3”, “His6-tagged” for “GST-tagged”, “KDR,” for “Flt3,”, “790-end” for “564-end”, “0.33 mg/mL myelin basic protein” for “50 μM amino acid sequence EAIYAAPFAKKK”

Aurora B kinase = target: T5, Aurora B kinase (Homo sapiens, UniProt Q96GD4); test: Aurora B (Aurora 1) inhibition assay, Z'-Lyte kinase assay; details: ATP 50 μM, 16 h; less than or equal to 100 nM
T5 construct: purchased BPS Biosciences, San Diego, Calif
T5 sequence (Q96GD4 whole entry): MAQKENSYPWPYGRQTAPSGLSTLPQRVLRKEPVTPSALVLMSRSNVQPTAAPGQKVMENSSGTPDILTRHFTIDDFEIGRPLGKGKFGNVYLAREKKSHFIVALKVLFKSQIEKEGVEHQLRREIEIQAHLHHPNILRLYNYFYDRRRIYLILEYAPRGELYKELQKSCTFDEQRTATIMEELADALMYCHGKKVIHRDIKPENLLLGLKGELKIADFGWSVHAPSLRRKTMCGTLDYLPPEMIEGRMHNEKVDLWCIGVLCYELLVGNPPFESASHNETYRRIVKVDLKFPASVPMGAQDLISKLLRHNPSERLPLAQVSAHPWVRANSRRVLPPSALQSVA

Measured: IC50

Cc1cc(Nc2cc(N3CC(O)(C4CC4)C3)nc(/C=C/c3ccccc3)n2)n[nH]1 [Compound 3, (E)-3-cyclopropyl-1-(6-(5-methyl-1H-pyrazol-3-ylamino)-2-styrylpyrimidin-4-yl)azetidin-3-ol]
≤ 100 nM: all assays above

Cc1cc(Nc2cc(N3CCC(N4CCOCC4)CC3)nc(/C=C/c3ccccc3)n2)n[nH]1 [Compound 7, (E)-N-(5-methyl-1H-pyrazol-3-yl)-6-(4-morpholinopiperidin-1-yl)-2-styrylpyrimidin-4-amine]
≤ 100 nM: all assays above

Cc1cc(Nc2cc(N3CC(N4CCC(O)CC4)C3)nc(/C=C/c3ccccc3)n2)n[nH]1 [Compound 21, (E)-1-(1-(6-(5-methyl-1H-pyrazol-3-ylamino)-2-styrylpyrimidin-4-yl)azetidin-3-yl)piperidin-4-ol]
not listed: Aurora B kinase
≤ 100 nM: all other assays above

Cc1cc(Nc2cc(N3CCC(N4CCCCC4)C3)nc(/C=C/c3ccccc3)n2)n[nH]1 (centres unmarked) [Compound 23, (E)-N-(5-methyl-1H-pyrazol-3-yl)-6-(3-(piperidin-1-yl)pyrrolidin-1-yl)-2-styrylpyrimidin-4-amine]
not listed: Aurora B kinase
≤ 100 nM: all other assays above

Cc1cc(Nc2cc(N3CCN(CC4CCCO4)CC3)nc(/C=C/c3ccccc3)n2)n[nH]1 (centres unmarked) [Compound 24, (E)-N-(5-methyl-1H-pyrazol-3-yl)-2-styryl-6-(4-((tetrahydrofuran-2-yl)methyl)piperazin-1-yl)pyrimidin-4-amine]
not listed: Aurora B kinase
≤ 100 nM: all other assays above

Cc1cc(Nc2cc(N3CCC(CN4CCCCC4)CC3)nc(/C=C/c3ccccc3)n2)n[nH]1 [Compound 30]
not listed: Aurora B kinase
≤ 100 nM: all other assays above
